Measurements as given in PubChem BioAssay AID2060903 (Molecular Pharmacology Branch, DTP, NCI, 2025).

System: 377384-186-R-J1-PDC complex spheroid viability
Assay: Anticancer human tumor 377384-186-R-J1-PDC patient-derived pancreatic carcinoma cell line growth inhibition [RAS]
Conditions: for IC50: curve of first compound; for viability, T/C: stronger effect = lower value
Method in brief: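 Agents were tested in combination matrices in half-log decrements from a top concentration at or near clinical Cmax (10 microM if undetermined). Targets were multi-cell spheroids of tumour lines plus HUVEC and MSC stromal cells.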
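Also: spheroids exposed to compounds for seven days before readout.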

`CCC(CC)c1cc(NC2CCC(N)C2)n2nccc2n1` (stereo unspecified) + C#Cc1c(F)ccc2cc(O)cc(-c3ncc4c(N5CC6CCC(C5)N6)nc(OCC56CCCN5CC(F)C6)nc4c3F)c12 was tested, and the IC50 (second compound 0.0316 µM) was < 31.6 nM, the IC50 (second compound 0.1 µM) was < 31.6 nM and the IC50 (second compound 0.316 µM) was < 31.6 nM. For the same molecule, the IC50 (second compound 1 µM) was < 31.6 nM, the IC50 (second compound 3.16 µM) was < 31.6 nM and the IC50 (second compound 10 µM) was < 31.6 nM. The viability, T/C (second compound 0.0316 µM, first compound 0.0316 µM) was 27.3%, the viability, T/C (second compound 0.0316 µM, first compound 0.1 µM) was 24.2% and the viability, T/C (second compound 0.0316 µM, first compound 0.316 µM) was 22.7%. It also gave a viability, T/C (second compound 0.0316 µM, first compound 1 µM) of 16%, a viability, T/C (second compound 0.0316 µM, first compound 3.16 µM) of 1.58% and a viability, T/C (second compound 0.0316 µM, first compound 10 µM) of 5.35%. The viability, T/C (second compound 0.1 µM, first compound 0.0316 µM) was 10.8%, the viability, T/C (second compound 0.1 µM, first compound 0.1 µM) was 12.2% and the viability, T/C (second compound 0.1 µM, first compound 0.316 µM) was 7.8%. The viability, T/C (second compound 0.1 µM, first compound 1 µM) was 9.56%, the viability, T/C (second compound 0.1 µM, first compound 3.16 µM) was 1.88% and the viability, T/C (second compound 0.1 µM, first compound 10 µM) was 5.23%. It also gave a viability, T/C (second compound 0.316 µM, first compound 0.0316 µM) of 5.57%, a viability, T/C (second compound 0.316 µM, first compound 0.1 µM) of 5.89% and a viability, T/C (second compound 0.316 µM, first compound 0.316 µM) of 4.79%. It also gave a viability, T/C (second compound 0.316 µM, first compound 1 µM) of 4.23%, a viability, T/C (second compound 0.316 µM, first compound 3.16 µM) of 1.7% and a viability, T/C (second compound 0.316 µM, first compound 10 µM) of 5.13%. The viability, T/C (second compound 1 µM, first compound 0.0316 µM) was 3.15%, the viability, T/C (second compound 1 µM, first compound 0.1 µM) was 3.52% and the viability, T/C (second compound 1 µM, first compound 0.316 µM) was 2.78%. The viability, T/C (second compound 1 µM, first compound 1 µM) was 3.71%, the viability, T/C (second compound 1 µM, first compound 3.16 µM) was 2.1% and the viability, T/C (second compound 1 µM, first compound 10 µM) was 6.67%. The viability, T/C (second compound 3.16 µM, first compound 0.0316 µM) was 2.7%, the viability, T/C (second compound 3.16 µM, first compound 0.1 µM) was 2.53% and the viability, T/C (second compound 3.16 µM, first compound 0.316 µM) was 2.14%. For the same molecule, the viability, T/C (second compound 3.16 µM, first compound 1 µM) was 2.51%, the viability, T/C (second compound 3.16 µM, first compound 3.16 µM) was 1.88% and the viability, T/C (second compound 3.16 µM, first compound 10 µM) was 6.5%. It also gave a viability, T/C (second compound 10 µM, first compound 0.0316 µM) of 1.53%, a viability, T/C (second compound 10 µM, first compound 0.1 µM) of 1.24% and a viability, T/C (second compound 10 µM, first compound 0.316 µM) of 1.12%. The viability, T/C (second compound 10 µM, first compound 1 µM) was 1.66%, the viability, T/C (second compound 10 µM, first compound 3.16 µM) was 1.33% and the viability, T/C (second compound 10 µM, first compound 10 µM) was 3.5%.

With `O=C(c1ccc(F)c(F)c1Nc1ccc(I)cc1F)N1CC(O)([C@@H]2CCCCN2)C1` + CCn1c(-c2cccnc2C(C)OC)c2c3cc(ccc31)N1CCOC(CC(NC(=O)C(C(C)C)N(C)C(=O)C3(F)CCN(C(=O)C#CC(C)(C)N(C)C)CC3)C(=O)N3CCCC(N3)C(=O)OCC(C)(C)C2)C1 the IC50 (second compound 0.000949 µM) was 33.2 nM, the IC50 (second compound 0.003 µM) was 44.8 nM and the IC50 (second compound 0.00949 µM) was 28.6 nM. The IC50 (second compound 0.03 µM) was 36 nM, the IC50 (second compound 0.0949 µM) was 29.9 nM and the IC50 (second compound 0.3 µM) was 16.8 nM. For the same molecule, the viability, T/C (second compound 0.000949 µM, first compound 0.00316 µM) was 87.5%, the viability, T/C (second compound 0.000949 µM, first compound 0.01 µM) was 85.8% and the viability, T/C (second compound 0.000949 µM, first compound 0.0316 µM) was 49.2%. The viability, T/C (second compound 0.000949 µM, first compound 0.1 µM) was 17.4%, the viability, T/C (second compound 0.000949 µM, first compound 0.316 µM) was 1.96% and the viability, T/C (second compound 0.000949 µM, first compound 1 µM) was 1.6%. The viability, T/C (second compound 0.003 µM, first compound 0.00316 µM) was 103%, the viability, T/C (second compound 0.003 µM, first compound 0.01 µM) was 89.2% and the viability, T/C (second compound 0.003 µM, first compound 0.0316 µM) was 63.1%. For the same molecule, the viability, T/C (second compound 0.003 µM, first compound 0.1 µM) was 22.7%, the viability, T/C (second compound 0.003 µM, first compound 0.316 µM) was 2.13% and the viability, T/C (second compound 0.003 µM, first compound 1 µM) was 0.43%. The viability, T/C (second compound 0.00949 µM, first compound 0.00316 µM) was 98.8%, the viability, T/C (second compound 0.00949 µM, first compound 0.01 µM) was 75% and the viability, T/C (second compound 0.00949 µM, first compound 0.0316 µM) was 50.3%. The viability, T/C (second compound 0.00949 µM, first compound 0.1 µM) was 19.1%, the viability, T/C (second compound 0.00949 µM, first compound 0.316 µM) was 1.75% and the viability, T/C (second compound 0.00949 µM, first compound 1 µM) was 0.87%. For the same molecule, the viability, T/C (second compound 0.03 µM, first compound 0.00316 µM) was 96.2%, the viability, T/C (second compound 0.03 µM, first compound 0.01 µM) was 77.8% and the viability, T/C (second compound 0.03 µM, first compound 0.0316 µM) was 57.3%. For the same molecule, the viability, T/C (second compound 0.03 µM, first compound 0.1 µM) was 18.9%, the viability, T/C (second compound 0.03 µM, first compound 0.316 µM) was 4.23% and the viability, T/C (second compound 0.03 µM, first compound 1 µM) was 0.57%. The viability, T/C (second compound 0.0949 µM, first compound 0.00316 µM) was 85.5%, the viability, T/C (second compound 0.0949 µM, first compound 0.01 µM) was 77.8% and the viability, T/C (second compound 0.0949 µM, first compound 0.0316 µM) was 47.5%. The viability, T/C (second compound 0.0949 µM, first compound 0.1 µM) was 17.7%, the viability, T/C (second compound 0.0949 µM, first compound 0.316 µM) was 1.32% and the viability, T/C (second compound 0.0949 µM, first compound 1 µM) was 0.36%. It also gave a viability, T/C (second compound 0.3 µM, first compound 0.00316 µM) of 77.1%, a viability, T/C (second compound 0.3 µM, first compound 0.01 µM) of 60.6% and a viability, T/C (second compound 0.3 µM, first compound 0.0316 µM) of 36.9%. The viability, T/C (second compound 0.3 µM, first compound 0.1 µM) was 10.7%, the viability, T/C (second compound 0.3 µM, first compound 0.316 µM) was 0.96% and the viability, T/C (second compound 0.3 µM, first compound 1 µM) was 0.43%.

For `CC1(C)CCC(Nc2ncc(C(F)(F)F)c(-c3c[nH]c4c(P(C)(C)=O)c(C#N)ccc34)n2)CN1` (stereo unspecified) + C#Cc1c(F)ccc2cc(O)cc(-c3ncc4c(N5CC6CCC(C5)N6)nc(OCC56CCCN5CC(F)C6)nc4c3F)c12, the IC50 (second compound 0.0316 µM) was < 0.949 nM, the IC50 (second compound 0.1 µM) was < 0.949 nM and the IC50 (second compound 0.316 µM) was < 0.949 nM. The IC50 (second compound 1 µM) was < 0.949 nM, the IC50 (second compound 3.16 µM) was < 0.949 nM and the IC50 (second compound 10 µM) was < 0.949 nM. For the same molecule, the viability, T/C (second compound 0.0316 µM, first compound 0.000949 µM) was 22.5%, the viability, T/C (second compound 0.0316 µM, first compound 0.003 µM) was 20.6% and the viability, T/C (second compound 0.0316 µM, first compound 0.00949 µM) was 14.8%. The viability, T/C (second compound 0.0316 µM, first compound 0.03 µM) was 14.3%, the viability, T/C (second compound 0.0316 µM, first compound 0.0949 µM) was 11.5% and the viability, T/C (second compound 0.0316 µM, first compound 0.3 µM) was 10.4%. For the same molecule, the viability, T/C (second compound 0.1 µM, first compound 0.000949 µM) was 12.3%, the viability, T/C (second compound 0.1 µM, first compound 0.003 µM) was 8.6% and the viability, T/C (second compound 0.1 µM, first compound 0.00949 µM) was 7.96%. For the same molecule, the viability, T/C (second compound 0.1 µM, first compound 0.03 µM) was 7.41%, the viability, T/C (second compound 0.1 µM, first compound 0.0949 µM) was 7.16% and the viability, T/C (second compound 0.1 µM, first compound 0.3 µM) was 6.43%. It also gave a viability, T/C (second compound 0.316 µM, first compound 0.000949 µM) of 4.28%, a viability, T/C (second compound 0.316 µM, first compound 0.003 µM) of 5.25% and a viability, T/C (second compound 0.316 µM, first compound 0.00949 µM) of 2.68%. For the same molecule, the viability, T/C (second compound 0.316 µM, first compound 0.03 µM) was 4.16%, the viability, T/C (second compound 0.316 µM, first compound 0.0949 µM) was 3.74% and the viability, T/C (second compound 0.316 µM, first compound 0.3 µM) was 2.89%. The viability, T/C (second compound 1 µM, first compound 0.000949 µM) was 4.34%, the viability, T/C (second compound 1 µM, first compound 0.003 µM) was 2.56% and the viability, T/C (second compound 1 µM, first compound 0.00949 µM) was 2.74%. The viability, T/C (second compound 1 µM, first compound 0.03 µM) was 3.25%, the viability, T/C (second compound 1 µM, first compound 0.0949 µM) was 2.68% and the viability, T/C (second compound 1 µM, first compound 0.3 µM) was 2.91%. For the same molecule, the viability, T/C (second compound 3.16 µM, first compound 0.000949 µM) was 2.73%, the viability, T/C (second compound 3.16 µM, first compound 0.003 µM) was 2.34% and the viability, T/C (second compound 3.16 µM, first compound 0.00949 µM) was 1.84%. For the same molecule, the viability, T/C (second compound 3.16 µM, first compound 0.03 µM) was 2.23%, the viability, T/C (second compound 3.16 µM, first compound 0.0949 µM) was 2.14% and the viability, T/C (second compound 3.16 µM, first compound 0.3 µM) was 2.47%. The viability, T/C (second compound 10 µM, first compound 0.000949 µM) was 1.18%, the viability, T/C (second compound 10 µM, first compound 0.003 µM) was 1.24% and the viability, T/C (second compound 10 µM, first compound 0.00949 µM) was 1.33%. For the same molecule, the viability, T/C (second compound 10 µM, first compound 0.03 µM) was 1.3%, the viability, T/C (second compound 10 µM, first compound 0.0949 µM) was 0.94% and the viability, T/C (second compound 10 µM, first compound 0.3 µM) was 0.79%.
